Data: patent US8722343B2, “Methods and compositions for the diagnosis and treatment of diabetes” (priority 2008, dated 2014)

Experiments:
[1] = MTT cell viability assay in βTC3 cells; type: cell-based, mouse; conditions: mouse; 0.05 mM DHK, five days; read-out: decrease in RGR (βTC3 viability)
Method: 1A: Glutamate induces a dose-dependent beta-cell death. 24 hrs after plating, αTC1 and βTC3 cells were incubated for five days with the indicated glutamate concentrations and viability was assessed by MTT assay. Data are presented as % Relative Growth Rate (RGR) versus controls (100%) and represent the mean±SE of at least 7 independent experiments (n=6). * p<0.01 vs ctrl; ° p<0.01 vs Glu 5 mM in αTC1.
1C: β-cell death is prevented by pharmacological inhibition of ionotropic channels. 24 hrs after plating, αTC1 and βTC3 cells were incubated for five days with 0.025 mM CNQX (left panel) or 0.1 mM APV (right panel), in the presence or the absence of 5 mM glutamate and viability was assessed by MTT assay. Data are presented as % RGR versus control samples (100%) and represent the mean±SE of three independent experiments (n=5). * p<0.05
6B. MTT assay. 24 hrs after plating, αTC1 and βTC3 cells were incubated for five days with different DHK concentrations and viability was assessed by MTT assay. Data are presented as % RGR versus control (100%) and represent the mean±SE of three independent experiments (n=8). * (DHK versus control) p<0.05
8B: MTT assay: 24 hrs after plating, βTC3 cells were incubated for five days with the indicated ceftriaxone concentrations in the presence or absence of 5 mM glutamate and viability was assayed by MTT assay. Data are presented as % RGR versus control (100%) and represent the mean±SE of three independent experiments (n=8). *(ceftriaxone versus relative control) p<0.05.
βTC3 and αTC1 cells were derived from progeny of transgenic mice expressing SV40 large T-antigen under control of the rat insulin II 5′-flanking region or rat preproglucagon 5′-flanking region, respectively (Powers et al, 1990) and were originally provided by Douglas Hanahan (Department of Biochemistry and Biophysics, University of California, San Francisco, Calif.). βTC3 were grown in RPMI 1640 11 mM glucose, supplemented with 10% heat inactivated fetal bovine serum, 2 mM L-glutamine, and 100 IU/ml streptomycin/penicillin, as previously described (Galbiati et al, 2002). Experiments were performed between the 27 and 33 passage of cell culture.
3-(4,5-Dimethylthiazol-2-yl)-2,5-diphenyltetrazolium bromide (MTT) assay. βTC3 cells were seeded at a density of 8×10^3 cells/well onto 96-well culture plates. Cells were allowed to attach and grow for 24 h in standard medium. Then medium was replaced with fresh medium containing glutamate, DHK (Dihydrokainic Acid, Sigma Aldrich), glutamate receptor inhibitors APV and CNQX (Sigma Aldrich) or ceftriaxone (Sigma Aldrich) at the indicated concentrations. […] Coloured formazan product was determined spectrophotometrically at 540 nm. 20 islets/tube were used to assess viability in human isolated islets. Data are expressed as % Relative Growth Rate (% RGR) versus control samples.

βTC3 cells = assay: TUNEL apoptosis assay in βTC3 cells; type: cell-based; conditions: 0.1 mM DHK for five days
Method: 1B: Glutamate overstimulation causes increased β-cell apoptosis. 24 hours after plating, βTC3 cells were incubated for five days with 0.5 mM glutamate, and cell apoptosis was assessed by TUNEL assay. The cell nuclei were labelled with PrI. Histograms on the right represent TUNEL positive cells per field, and are the mean±SE of two independent experiments performed in duplicate.
6C TUNEL assay: 24 hours after plating, βTC3 cells were incubated for five days with 0.1 mM DHK, and cell apoptosis was assessed by TUNEL assay. Cell nuclei were labelled with PrI. Data are presented as TUNEL positive cells per field (histograms on the right), and are the mean±SE of two independent experiments performed in duplicate. * P<0.05
6D ShRNA interference. βTC3 cells were transfected with two different shRNA directed against GLT1 (Sh1, Sh3) or a control shRNA (ShC), and three days after transfection, cells were assayed for 3[H]-D-aspartate uptake (b) or lysed and the presence of GLT assayed by western blotting (a) or fixed and processed for TUNEL (c).
Apoptosis of β-TC3 cells was estimated using the terminal deoxynucleotidyltransferase-mediated dUTP-biotin nick end-labelling assay (TUNEL). […] Tunel-positive cells were counted by two independent observers using a 40× objective from at least 40 randomly selected fields per coverslip. […]

GLT1 = target: T1, GLT1 (Homo sapiens, UniProt P43004); assay: Na-dependent [3H]-D-aspartate uptake in isolated human islets; type: cell-based; set-up: dose or concentration left out as unconfirmed
T1 construct: from tissue; host or cells: isolated human pancreatic islets from cadaveric multiorgan donors
T1 sequence (P43004 whole entry): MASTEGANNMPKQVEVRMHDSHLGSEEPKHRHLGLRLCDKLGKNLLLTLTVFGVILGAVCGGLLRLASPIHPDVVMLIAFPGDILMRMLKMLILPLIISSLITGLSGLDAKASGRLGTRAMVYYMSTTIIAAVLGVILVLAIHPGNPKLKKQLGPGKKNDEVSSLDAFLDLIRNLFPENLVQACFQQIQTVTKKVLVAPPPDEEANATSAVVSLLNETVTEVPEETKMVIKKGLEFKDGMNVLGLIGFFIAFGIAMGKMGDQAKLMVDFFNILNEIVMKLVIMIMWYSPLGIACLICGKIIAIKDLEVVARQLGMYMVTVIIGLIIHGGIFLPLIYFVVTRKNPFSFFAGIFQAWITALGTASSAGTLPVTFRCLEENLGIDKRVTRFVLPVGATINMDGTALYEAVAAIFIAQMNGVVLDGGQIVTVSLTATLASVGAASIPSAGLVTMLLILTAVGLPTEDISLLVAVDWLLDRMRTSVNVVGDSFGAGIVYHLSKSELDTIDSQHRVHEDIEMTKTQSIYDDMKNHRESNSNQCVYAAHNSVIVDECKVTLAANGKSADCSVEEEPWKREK
Method: 3B: 3H-D Aspartate uptake. The Na-dependent (NaCl) and Na-independent (ChCl) [3H]-D-Aspartate uptake was measured in 40, hand picked, isolated human islets. […] Data are expressed as % of Na-dependent uptake (NaCl) and represent the mean±SE of at least three independent experiments performed in triplicate. * (DHK versus controls) P<0.001.
Human pancreatic islets were isolated from the pancreases of cadaveric multiorgan donors by using the procedure already described by Ricordi (Ricordi, et al, 1988). The islets used in this study were isolated from eight different organs. After the isolation, the islets were purified from the contaminant exocrine tissue by centrifugation on Ficoll gradients, obtaining a final purity that ranged from 60% to 80%, as assayed by dithizone staining (Ricordi et al, 1988). Islets were then cultured in RPMI 1640 tissue culture medium. After a 48-h stabilization culture, old medium was replaced with fresh medium and islets were cultured until used for insulin secretory studies, RNA extraction and uptake experiments. For apoptosis assay, fresh medium containing glutamate (0.5 or 5 mM) or DHK (0.05 or 0.1 mM) was replaced and islets were cultured for additional five days.
150.000 cells/well were plated in a 24-wells plate, and grown until confluence. […]

SMILES: CC(C)[C@H]1CN[C@H](C(=O)O)[C@H]1CC(=O)O [DHK, Dihydrokainic Acid]
- cytotoxicity at 5 days, 0.05 mM [1]: 6.17%
- cause of cytotoxicity by TUNEL assay (βTC3 cells): due to apoptosis
- Na-dependent transport of aspartate (GLT1): completely inhibited
